Read-outs that look alike come from different tables or passages of the source.
Legend:
SARS-CoV-2 = assay: microbe, parasite or virus in culture; type: cell-based; settings: Severe acute respiratory syndrome coronavirus 2, VeroE6/TMPRSS2, 72 h, 50% SARS-CoV-2 infected cell death inhibitory concentration, VeroE6/TMPRSS2 cells, 3 days culture
SARS-CoV-2 3CL protease = SARS-CoV-2 3CL protease (Severe acute respiratory syndrome coronavirus 2, UniProt P0DTD1); assay: biochemical; settings: 50% SARS-CoV-2 3CL protease inhibitory concentration, read-out: IC50

CC(=O)Nc1nc2cc(Cl)c(Nc3nc(=O)n(Cc4ncn(C)n4)c(=O)n3Cc3cc(F)c(F)cc3F)cc2s1 [II-0560]
EC50 (SARS-CoV-2; class symbols): 1000 to 10000 nM | IC50 (SARS-CoV-2 3CL protease; given as class symbols): < 100 nM

Cn1cnc(Cn2c(=O)nc(Nc3cc4cn(CC5(NC(=O)OC(C)(C)C)CC5)nc4cc3Cl)n(Cc3cc(Cl)c(F)cc3F)c2=O)n1 [II-0562]
EC50 (SARS-CoV-2; class symbols): 1000 to 10000 nM | IC50 (SARS-CoV-2 3CL protease; given as class symbols): < 100 nM

CC(=O)Nc1nc2cc(Cl)c(Nc3nc(=O)n(-c4cncc(C)c4)c(=O)n3Cc3cc(F)c(F)cc3F)cc2s1 [II-0563]
EC50 (SARS-CoV-2; class symbols): 1000 to 10000 nM | IC50 (SARS-CoV-2 3CL protease; given as class symbols): < 100 nM

Cc1cncc(-n2c(=O)nc(Nc3cc4cn(CC(F)(F)F)nc4cc3Cl)n(Cc3cc(F)c(F)c(F)c3)c2=O)c1 [II-0564]
EC50 (SARS-CoV-2; class symbols): < 1000 nM | IC50 (SARS-CoV-2 3CL protease; given as class symbols): < 100 nM

Cn1cnc(Cn2c(=O)nc(Nc3cc4cn(CC5(NC(=O)OC(C)(C)C)CC5)nc4cc3Cl)n(Cc3cc(F)c(F)c(Cl)c3)c2=O)n1 [II-0565]
EC50 (SARS-CoV-2; class symbols): 1000 to 10000 nM | IC50 (SARS-CoV-2 3CL protease; given as class symbols): < 100 nM

CCn1cc2cc(Nc3nc(=O)n(-c4cncc(Cl)c4)c(=O)n3Cc3ccc(F)c(C#N)c3)ccc2n1 [II-0566]
EC50 (SARS-CoV-2; CellTiter-Glo 2.0): 898 nM | IC50 (SARS-CoV-2 3CL protease; RapidFire MS): 27 nM

Cc1cncc(-n2c(=O)nc(Nc3ccc4nn(CC(F)(F)F)cc4c3)n(Cc3ccc(F)c(C#N)c3)c2=O)c1 [II-0567]
EC50 (SARS-CoV-2; CellTiter-Glo 2.0): 650 nM | IC50 (SARS-CoV-2 3CL protease; RapidFire MS): 8.8 nM

Cc1cncc(-n2c(=O)nc(Nc3cc4cn(CC(F)F)nc4cc3Cl)n(Cc3cc(F)c(F)c(C#N)c3)c2=O)c1 [II-0568]
EC50 (SARS-CoV-2; CellTiter-Glo 2.0): 132 nM | IC50 (SARS-CoV-2 3CL protease; RapidFire MS): 2.1 nM

Cn1cnc(Cn2c(=O)nc(Nc3cc4cn(CC(F)F)nc4cc3Cl)n(Cc3cc(Cl)c(F)cc3F)c2=O)n1 [II-0569]
EC50 (SARS-CoV-2; CellTiter-Glo 2.0): 419 nM | IC50 (SARS-CoV-2 3CL protease; RapidFire MS): 4.2 nM

Cc1cncc(-n2c(=O)nc(Nc3ccc4nn(CC(F)F)cc4c3)n(Cc3cc(C#N)ccc3Cl)c2=O)c1 [II-0570]
EC50 (SARS-CoV-2; CellTiter-Glo 2.0): 600 nM | IC50 (SARS-CoV-2 3CL protease; RapidFire MS): 4.4 nM

Cc1cc(F)c(C#N)cc1Cn1c(Nc2ccc3nn(C)cc3c2)nc(=O)n(-c2cncc(Cl)c2)c1=O [II-0571]
EC50 (SARS-CoV-2; CellTiter-Glo 2.0): 190 nM | IC50 (SARS-CoV-2 3CL protease; RapidFire MS): 5.4 nM

Cn1cnc(Cn2c(=O)nc(Nc3cc4cn(CC(F)F)nc4cc3Cl)n(Cc3cc(F)c(F)c(Cl)c3)c2=O)n1 [II-0572]
EC50 (SARS-CoV-2; CellTiter-Glo 2.0): 925 nM | IC50 (SARS-CoV-2 3CL protease; RapidFire MS): 5.6 nM

Cc1cncc(-n2c(=O)nc(Nc3ccc4nn(C)cc4c3)n(Cc3cc(F)c(F)c(C#N)c3)c2=O)c1 [II-0573]
EC50 (SARS-CoV-2; CellTiter-Glo 2.0): 340 nM | IC50 (SARS-CoV-2 3CL protease; RapidFire MS): 6.1 nM

Cc1cncc(-n2c(=O)nc(Nc3cc4cn(CC(F)F)nc4cc3Cl)n(Cc3cc(F)c(F)cc3F)c2=O)c1 [II-0574]
EC50 (SARS-CoV-2; CellTiter-Glo 2.0): 200 nM | IC50 (SARS-CoV-2 3CL protease; RapidFire MS): 9.2 nM

Cn1cc2cc(Nc3nc(=O)n(-c4cncc(Cl)c4)c(=O)n3Cc3cc(Cl)c(F)cc3F)ccc2n1 [II-0576]
EC50 (SARS-CoV-2; CellTiter-Glo 2.0): 530 nM | IC50 (SARS-CoV-2 3CL protease; RapidFire MS): 17 nM

Cc1cncc(-n2c(=O)nc(Nc3cc4cn(CC(F)F)nc4cc3Cl)n(Cc3cc(C#N)ccc3C)c2=O)c1 [II-0577]
EC50 (SARS-CoV-2; CellTiter-Glo 2.0): 85 nM | IC50 (SARS-CoV-2 3CL protease; RapidFire MS): 1.1 nM

COc1cncc(-n2c(=O)nc(Nc3cc4cn(C)nc4cc3Cl)n(Cc3ccc(F)c(C#N)c3)c2=O)c1 [II-0578]
EC50 (SARS-CoV-2; class symbols): 1000 to 10000 nM | IC50 (SARS-CoV-2 3CL protease; given as class symbols): < 100 nM

Cc1cncc(-n2c(=O)nc(Nc3cc4cn(C)nc4cc3Cl)n(Cc3cc(C#N)ccc3Cl)c2=O)c1 [II-0579]
EC50 (SARS-CoV-2; CellTiter-Glo 2.0): 67 nM | IC50 (SARS-CoV-2 3CL protease; RapidFire MS): 2.1 nM

Cc1cncc(-n2c(=O)nc(Nc3cc4cn(C)nc4cc3Cl)n(Cc3cc(C#N)ccc3[N+](=O)[O-])c2=O)c1 [II-0580]
EC50 (SARS-CoV-2; class symbols): < 1000 nM | IC50 (SARS-CoV-2 3CL protease; given as class symbols): < 100 nM

Cc1cncc(-n2c(=O)nc(Nc3cc4cn(C)nc4cc3Cl)n(Cc3cc(C#N)c(F)cc3CF)c2=O)c1 [II-0581]
EC50 (SARS-CoV-2; class symbols): < 1000 nM | IC50 (SARS-CoV-2 3CL protease; given as class symbols): < 100 nM

Cc1cncc(-n2c(=O)nc(Nc3cc4cn(C)nc4cc3Cl)n(Cc3cc(Cl)ccc3Cl)c2=O)c1 [II-0582]
EC50 (SARS-CoV-2; class symbols): < 1000 nM | IC50 (SARS-CoV-2 3CL protease; given as class symbols): < 100 nM

Cc1cncc(-n2c(=O)nc(Nc3cc4cn(C)nc4cc3Cl)n(Cc3cc(C#N)c(F)cc3C(F)F)c2=O)c1 [II-0583]
EC50 (SARS-CoV-2; class symbols): < 1000 nM | IC50 (SARS-CoV-2 3CL protease; given as class symbols): < 100 nM

Cn1cnc(Cn2c(=O)nc(Nc3cc4cn(C)nc4cc3Cl)n(Cc3cc(Cl)c(F)c(Cl)c3)c2=O)n1 [II-0584]
EC50 (SARS-CoV-2; CellTiter-Glo 2.0): 750 nM | IC50 (SARS-CoV-2 3CL protease; RapidFire MS): 4.8 nM

Cc1cncc(-n2c(=O)nc(Nc3cc4cn(C)nc4cc3Cl)n(Cc3cc(C#N)ccc3N)c2=O)c1 [II-0585]
EC50 (SARS-CoV-2; class symbols): 1000 to 10000 nM | IC50 (SARS-CoV-2 3CL protease; given as class symbols): < 100 nM

Source: US12559474B2, “Triazine derivatives having virus replication inhibitory activity and pharmaceutical composition comprising the same” (priority 2021, dated 2026)
